# Test results: ChEMBL document CHEMBL4610120, “New Broad-Spectrum Antibiotics Containing a Pyrrolobenzodiazepine Ring with Activity against Multidrug-Resistant Gram-Negative Bacteria” (J Med Chem, 2020)
# Legend:
# [1] = system: Escherichia coli; assay: Antimicrobial activity against multidrug-resistant Escherichia coli NCTC 12923 assessed as mutation frequency at 4 times MIC measured after 48 hrs; format: functional
# [2] = system: Acinetobacter baumannii; assay: Antimicrobial activity against Acinetobacter baumannii ATCC 17978 assessed as mutation frequency at 4 times MIC measured after 48 hrs; format: functional
# [3] = target: T1, Protein RecA (Escherichia coli K-12) (UniProt P0A7G6); assay: Induction of Escherichia coli K12 MG1655 recA promotor measured at 30 mins interval for 20 hrs by fluorescence assay relative to control; settings: Escherichia coli str. K-12 substr. MG1655
# T1 sequence (whole entry): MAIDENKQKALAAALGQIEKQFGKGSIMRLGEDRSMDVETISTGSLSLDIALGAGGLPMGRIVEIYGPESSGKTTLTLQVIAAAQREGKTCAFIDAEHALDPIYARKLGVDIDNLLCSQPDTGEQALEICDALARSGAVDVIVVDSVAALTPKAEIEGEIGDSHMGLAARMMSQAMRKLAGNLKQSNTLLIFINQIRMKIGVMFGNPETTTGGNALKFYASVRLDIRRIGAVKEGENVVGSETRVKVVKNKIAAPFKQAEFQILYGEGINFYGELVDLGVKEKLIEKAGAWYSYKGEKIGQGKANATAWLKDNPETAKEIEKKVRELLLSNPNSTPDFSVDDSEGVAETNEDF
# [4] = target: T2, LexA repressor (Escherichia coli) (UniProt P0A7C2); assay: Induction of Escherichia coli K12 MG1655 lexA promotor measured at 30 mins interval for 20 hrs by fluorescence assay relative to control; settings: Escherichia coli str. K-12 substr. MG1655
# T2 sequence (whole entry): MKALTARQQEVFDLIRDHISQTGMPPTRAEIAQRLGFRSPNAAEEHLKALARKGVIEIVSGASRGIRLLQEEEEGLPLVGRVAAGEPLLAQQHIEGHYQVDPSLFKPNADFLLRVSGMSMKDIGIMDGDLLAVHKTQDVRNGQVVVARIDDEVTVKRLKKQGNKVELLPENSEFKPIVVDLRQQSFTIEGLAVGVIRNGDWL
# [5] = target: T3, DNA repair protein RecN (Escherichia coli) (UniProt P05824); assay: Induction of Escherichia coli K12 MG1655 recN promotor measured at 30 mins interval for 20 hrs by fluorescence assay relative to control; settings: Escherichia coli str. K-12 substr. MG1655
# T3 sequence (whole entry): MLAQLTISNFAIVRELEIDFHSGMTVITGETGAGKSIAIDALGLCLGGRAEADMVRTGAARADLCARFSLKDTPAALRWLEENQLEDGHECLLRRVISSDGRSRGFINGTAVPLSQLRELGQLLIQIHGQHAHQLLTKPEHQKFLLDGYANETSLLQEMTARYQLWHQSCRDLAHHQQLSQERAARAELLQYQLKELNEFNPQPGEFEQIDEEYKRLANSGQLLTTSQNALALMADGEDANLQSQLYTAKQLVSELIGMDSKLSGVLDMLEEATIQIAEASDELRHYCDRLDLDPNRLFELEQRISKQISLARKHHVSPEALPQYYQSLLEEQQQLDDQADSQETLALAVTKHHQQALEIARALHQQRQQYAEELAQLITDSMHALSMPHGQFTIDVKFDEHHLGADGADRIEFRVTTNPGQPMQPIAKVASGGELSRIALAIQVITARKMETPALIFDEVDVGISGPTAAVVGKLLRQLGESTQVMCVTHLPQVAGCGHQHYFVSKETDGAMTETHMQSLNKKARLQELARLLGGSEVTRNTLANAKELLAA
# [6] = target: T4, Cell division inhibitor SulA (Escherichia coli K-12) (UniProt P0AFZ5); assay: Induction of Escherichia coli K12 MG1655 sulA promotor measured at 30 mins interval for 20 hrs by fluorescence assay relative to control; settings: Escherichia coli str. K-12 substr. MG1655
# T4 sequence (whole entry): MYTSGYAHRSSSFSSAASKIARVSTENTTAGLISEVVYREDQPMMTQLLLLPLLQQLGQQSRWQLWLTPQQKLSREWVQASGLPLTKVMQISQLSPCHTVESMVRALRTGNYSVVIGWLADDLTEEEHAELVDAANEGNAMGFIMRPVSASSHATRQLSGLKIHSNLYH
# [7] = system: Klebsiella pneumoniae; assay: Antimicrobial activity against Klebsiella pneumoniae M6 assessed as mutation frequency at 4 times MIC measured after 48 hrs; format: functional
smiles,measurement,setting,value
O=C(O)c1cn(C2CC2)c2cc(N3CCNCC3)c(F)cc2c1=O [CIPROFLOXACIN],Activity,[1],4.4 ×10⁻⁷ No_unit
same,Activity,[2],8.4 ×10⁻⁷ No_unit
same,fold change (FC),[3],20 to 35
same,fold change (FC),[4],5 to 13
same,fold change (FC),[5],14 to 32
same,fold change (FC),[6],17 to 41
same,Activity,[7],8.9 ×10⁻⁷ No_unit
